In patent US9845319B2, “Amide substituted thiazoles as modulators of RORyt” (Janssen Pharmaceutica NV, priority 2014, dated 2017):
Read-outs that look alike come from different tables or passages of the source.

How the values were obtained:
[1] = molecular target: T1, human RORγt ligand binding domain (RORγt LBD) (Homo sapiens, UniProt P51449); experiment: RORγt ThermoFluor assay; conditions: estimated from thermal shift concentration response
T1 construct: His-tag (N); TurboTEV protease cleavage site (ENLYFQG) (N); made in house; host or cells: E. coli (pHIS1, a modified pET expression vector)
T1 sequence (P51449 with tags, fused parts or gaps): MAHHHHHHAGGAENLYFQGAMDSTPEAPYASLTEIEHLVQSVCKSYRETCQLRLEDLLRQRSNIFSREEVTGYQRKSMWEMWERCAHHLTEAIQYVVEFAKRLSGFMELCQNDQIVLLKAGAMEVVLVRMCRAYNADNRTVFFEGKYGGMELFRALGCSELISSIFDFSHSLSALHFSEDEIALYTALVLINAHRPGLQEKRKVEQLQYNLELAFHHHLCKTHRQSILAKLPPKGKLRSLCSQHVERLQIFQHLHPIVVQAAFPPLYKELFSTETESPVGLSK
Method in brief: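 Thermal shift of RORγt LBD (0.065 mg/mL) with 60 μM 1,8-ANS in 100 mM Hepes pH 7.0, NaCl, GSH, 0.002% Tween-20, heated at 1° C/min. ANS fluorescence tracked versus temperature; ΔTm relative to DMSO wells. Compounds serially diluted 1:2 from 10 mM DMSO stock.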

full-length human RORγt = molecular target: T2, full-length human RORγt (Homo sapiens, UniProt P51449); experiment: RORγt (full-length human) Reporter Assay, Conditions A; assay type: cell-based; conditions: for IC50: HEK293T cells, GAL4-DBD-RORγt, luciferase, read-out: RORγt (FL) Reporter Assay A, IC50; for inhibition at 6 µM: read-out: RORγt (FL) Reporter Assay A, % inhibition @ 6 μM, 6 μM compound
T2 construct: expressed in transfected cells; host or cells: HEK293T, transiently transfected with pCMV-BD-ROR
T2 sequence (P51449 1-497 isoform P51449-2): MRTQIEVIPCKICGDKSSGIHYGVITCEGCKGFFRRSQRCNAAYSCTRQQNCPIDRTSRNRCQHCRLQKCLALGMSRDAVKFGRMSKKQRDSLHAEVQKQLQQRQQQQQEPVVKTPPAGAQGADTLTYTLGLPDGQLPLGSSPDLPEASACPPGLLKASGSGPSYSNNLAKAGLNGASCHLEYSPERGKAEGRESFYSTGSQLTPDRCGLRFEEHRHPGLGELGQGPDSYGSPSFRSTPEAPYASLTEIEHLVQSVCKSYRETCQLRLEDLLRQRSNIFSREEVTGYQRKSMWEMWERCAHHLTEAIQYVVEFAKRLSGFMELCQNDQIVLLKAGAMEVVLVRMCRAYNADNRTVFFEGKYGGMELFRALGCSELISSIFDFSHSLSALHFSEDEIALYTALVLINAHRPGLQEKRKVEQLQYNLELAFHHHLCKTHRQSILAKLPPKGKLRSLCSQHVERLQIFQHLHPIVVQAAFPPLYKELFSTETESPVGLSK
Method in brief: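 Reporter cells lysed after 16–20 h compound exposure; firefly and Renilla luciferase luminescence measured. Firefly signal normalised to DMSO and saturating reference compound, then to Renilla; IC50 from normalised data versus concentration, percent inhibition relative to DMSO.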

[2] = tested on: IL-17 production by CD4 T cells; experiment: Human Th17 Assay; assay type: cell-based; conditions: 72 h, read-out: Human Th17 Assay, IC50
Procedure: The human Th17 assay tests the effect of RORγt modulatory compounds on IL-17 production by CD4 T cells under conditions which favor Th17 differentiation. Total CD4^+ T cells were isolated from the peripheral blood mononuclear cells (PBMC) of healthy donors using a CD4^+ T cell isolation kit II, following the manufacturer's instructions (Miltenyi Biotec). […] 50 μL of compound at titrated concentrations in DMSO were added into each well at final DMSO concentration at 0.2%. Cells were incubated for 1 hour, then 50 μL of Th17 cell differentiation medium was added to each well. The final concentrations of antibodies and cytokines (R&D Systems) in differentiation medium were: 3×10^6/mL anti-CD3/CD28 beads (prepared using human T cell activation/expansion kit, Miltenyi Biotec), 10 μg/mL anti-IL4, 10 μg/mL anti-IFNγ, 10 ng/mL IL1β, 10 ng/mL IL23, 50 ng/mL IL6, 3 ng/mL TGFβ and 20 U/mL IL2. Cells were cultured at 37° C. and 5% CO2 for 3 days. Supernatants were collected and the accumulated IL-17 in culture was measured by using MULTI-SPOT® Cytokine Plate following manufacture's instruction (Meso Scale Discovery). The plate was read using Sector Imager 6000, and IL-17 concentration was extrapolated from the standard curve. The IC50s were determined by GraphPad.

[3] = IL-17 in supernatant, 3 days, human CD4+ T cells

| SMILES | Kd [1] [nM] | IC50 (full-length human RORγt) [nM] | inhibition at 6 µM (full-length human RORγt) [%] | IC50 [2, 3] [nM] | IC50 ([2]; Homo sapiens, CD4+ T) [nM] |
| --- | --- | --- | --- | --- | --- |
| CCN(CC)C(=O)c1nc(-c2nnc(CC(C)(C)C(=O)O)o2)sc1-c1ccc(S(=O)(=O)N[C@@H](C)C(F)(F)F)c(Cl)c1Cl [Example 1, (S)-3-(5-(5-(2,3-Dichloro-4-(N-(1,1,1-trifluoropropan-2-yl)sulfamoyl)phenyl)-4-(diethylcarbamoyl)thiazol-2-yl)-1,3,4-oxadiazol-2-yl)-2,2-dimethylpropanoic acid] | 1.3 | 1100 | 89 | 54 | – |
| CC(C)(Cc1nnc(-c2nc(C(=O)N3CCC(F)CC3)c(-c3cc(C(C)(C)C)cc(C(O)(C(F)(F)F)C(F)(F)F)c3)s2)o1)C(=O)O [Example 2/2, 3-(5-(5-(3-(tert-Butyl)-5-(1,1,1,3,3,3-hexafluoro-2-hydroxypropan-2-yl)phenyl)-4-(4-fluoropiperidine-1-carbonyl)thiazol-2-yl)-1,3,4-oxadiazol-2-yl)-2,2-dimethylpropanoic acid] | 2 | 150 | 104 | 150 | – |
| C[C@H](NS(=O)(=O)c1ccc(-c2sc(-c3nnc(C(C)(C)O)o3)nc2C(=O)N2CCC(F)(F)CC2)c(Cl)c1Cl)C(F)(F)F [Example 4/4, (S)-2,3-Dichloro-4-(4-(4,4-difluoropiperidine-1-carbonyl)-2-(5-(2-hydroxypropan-2-yl)-1,3,4-oxadiazol-2-yl)thiazol-5-yl)-N-(1,1,1-trifluoropropan-2-yl)benzenesulfonamide] | – | – | – | – | 15 |
| C[C@H](NS(=O)(=O)c1ccc(-c2sc(-c3nnc(C(C)(C)O)o3)nc2C(=O)N2CCOC[C@@H]2C)c(Cl)c1Cl)C(F)(F)F [Example 6/9, 2,3-Dichloro-4-(2-(5-(2-hydroxypropan-2-yl)-1,3,4-oxadiazol-2-yl)-4-((S)-3-methylmorpholine-4-carbonyl)thiazol-5-yl)-N—((S)-1,1,1-trifluoropropan-2-yl)benzenesulfonamide] | 6.5 | 110 | 108 | 100 | – |
| C[C@H](NS(=O)(=O)c1ccc(-c2sc(-c3nnc(C(C)(C)O)o3)nc2C(=O)N2CCC(F)(F)CC2)c2c1CCCO2)C(F)(F)F [Example 24, 8-(4-(4,4-Difluoropiperidine-1-carbonyl)-2-(5-(2-hydroxypropan-2-yl)-1,3,4-oxadiazol-2-yl)thiazol-5-yl)-N—((S)-1,1,1-trifluoropropan-2-yl)chroman-5-sulfonamide] | 5.2 | 190 | 97 | – | – |

The remaining molecules from weak to strong by Kd [1], led by results:

| Kd [1] [nM] | IC50 (full-length human RORγt) [nM] | inhibition at 6 µM (full-length human RORγt) [%] | IC50 [2, 3] [nM] | SMILES | IC50 ([2]; Homo sapiens, CD4+ T) [nM] |
| --- | --- | --- | --- | --- | --- |
| 12 | 320 | 47 | ~6000 | CC(C)(O)c1nnc(-c2nc(C(=O)N3CCC(F)(F)CC3)c(-c3ccc(C(O)C4(C(F)(F)F)CC4)c(Cl)c3Cl)s2)o1 (centres unmarked) [Example 8/4, (5-(2,3-Dichloro-4-(hydroxy(1-(trifluoromethyl)cyclopropyl)methyl)phenyl)-2-(5-(2-hydroxypropan-2-yl)-1,3,4-oxadiazol-2-yl)thiazol-4-yl)(4,4-difluoropiperidin-1-yl)methanone] | – |
| 10 | 93 | 98 | – | C[C@H](NS(=O)(=O)c1ccc(-c2sc(-c3nnc(C(C)(C)O)o3)nc2C(=O)N2CCC(F)(F)CC2)c(F)c1C(F)(F)F)C(F)(F)F [Example 25, 4-(4-(4,4-Difluoropiperidine-1-carbonyl)-2-(5-(2-hydroxypropan-2-yl)-1,3,4-oxadiazol-2-yl)thiazol-5-yl)-3-fluoro-2-(trifluoromethyl)-N—((S)-1,1,1-trifluoropropan-2-yl)benzenesulfonamide] | – |
| 5 | 86 | 107 | – | Cc1c(S(=O)(=O)N[C@@H](C)C(F)(F)F)ccc(-c2sc(-c3nnc(C(C)(C)O)o3)nc2C(=O)N2CCC(F)(F)CC2)c1F [Example 26, 4-(4-(4,4-Difluoropiperidine-1-carbonyl)-2-(5-(2-hydroxypropan-2-yl)-1,3,4-oxadiazol-2-yl)thiazol-5-yl)-3-fluoro-2-methyl-N—((S)-1,1,1-trifluoropropan-2-yl)benzenesulfonamide] | – |
